Literature values in PMC4567415 (Nuclear medicine and biology, 2015).
Values joined by “and” are separate entries in the source; they are usually repeats but may differ in a detail not shown here. Identical values can stand only once. Like-named read-outs stand apart in the source and are kept apart here.

Columns and labels:
[1] = previously described rhodamine B ester
[2] = test system: isolated rat cardiomyocytes
[3] = rats, 60 min
[4] = previously observed
[5] = Sprague-Dawley rats, 60 min p.i.

Compound: Fc1ccc([P+](c2ccccc2)(c2ccccc2)c2ccccc2)cc1 [BFPET]
- heart uptake (Sprague-Dawley rats, 30 min): 1.51±0.04 % ID/g
- liver concentration (Sprague-Dawley rats, 30 min p.i.): 0.18±0.05 % ID/g
- heart uptake [5]: 1.57±0.18 % ID/g
- liver concentration [5]: 0.17±0.03 % ID/g

Compound: CC(C)(C)n1ncc(OCc2ccc(COCCF)cc2)c(Cl)c1=O [BMS-747158-02]
- heart-to-blood ratio (30 min p.i.): 30.0
- heart-to-liver ratio (30 min p.i.): 2.7
- liver concentration (30 min p.i.): 1.27±0.10 % ID/g
- heart-to-liver ratio (120 min p.i.): 5.4
- liver concentration (120 min p.i.): 0.63±0.16 % ID/g
- heart concentration [5]: 3.3±0.3 % ID/g
- heart-to-liver ratio [5]: 3.7
- heart concentration (Wistar rats, 60 min p.i.): 2.06±0.83 % ID/g
- heart-to-liver ratio (Wistar rats, 60 min p.i.): 5.4

Compound: CCN(CC)c1ccc2c(-c3ccccc3C(=O)OCCOCC[18F])c3ccc(N(CC)CC)cc3[o+]c2c1 [[^18F]2]
- LogD [1]: 1.90 ± 0.01
- initial activity internalized into rat cardiomyocytes ([2]; 1 min incubation): 3.9±0.8%
- initial activity internalized into rat cardiomyocytes ([2]; 60 min incubation): 43.1±7.7%
- Biodistribution of radioactivity, Blood [3]: 0.25 ± 0.02 % ID/g
- Biodistribution of radioactivity, Bone [3]: 0.77 ± 0.04 % ID/g
- Biodistribution of radioactivity, Gut [3]: 1.69 ± 0.42 % ID/g
- Biodistribution of radioactivity, Heart [3]: 2.5 % ID/g and 2.51 ± 0.16 % ID/g
- Biodistribution of radioactivity, Kidney [3]: 9.28 ± 0.66 % ID/g
- Biodistribution of radioactivity, Liver [3]: 0.49 ± 0.04 % ID/g
- Biodistribution of radioactivity, Lung [3]: 2.06 ± 0.16 % ID/g
- Biodistribution of radioactivity, Muscle [3]: 0.54 ± 0.07 % ID/g
- Biodistribution of radioactivity, Skin [3]: 0.36 ± 0.04 % ID/g
- Biodistribution of radioactivity, Spleen [3]: 3.53 ± 0.57 % ID/g
- Heart/blood tissue ratio [3]: 10.0
- Heart/bone tissue ratio [3]: 3.3
- Heart/liver tissue ratio [3]: 5.1
- Heart/lung tissue ratio [3]: 1.2
- stability in mouse serum [4]: instability

Compound: CC/N=c1\cc2oc3cc(NCC)c(C)cc3c(-c3ccccc3C(=O)OCC)c-2cc1C [rhodamine 6G]
- substrate of Pgp (Pgp): substrate of Pgp
